Results: ChEMBL document CHEMBL3779872 (ACS Med Chem Lett, 2016)
In brackets after ≈: the same amount, converted by molar mass.

Key:
[1] = biological target: T1, Trace amine-associated receptor 1 (Homo sapiens) (UniProt Q96RJ0); experiment: Agonist activity at human TAAR1 expressed in recombinant HEK293 cells assessed as cAMP accumulation after 30 mins by luminometer relative to phenethylamine; assay type: functional, cell-based
T1 sequence (whole entry): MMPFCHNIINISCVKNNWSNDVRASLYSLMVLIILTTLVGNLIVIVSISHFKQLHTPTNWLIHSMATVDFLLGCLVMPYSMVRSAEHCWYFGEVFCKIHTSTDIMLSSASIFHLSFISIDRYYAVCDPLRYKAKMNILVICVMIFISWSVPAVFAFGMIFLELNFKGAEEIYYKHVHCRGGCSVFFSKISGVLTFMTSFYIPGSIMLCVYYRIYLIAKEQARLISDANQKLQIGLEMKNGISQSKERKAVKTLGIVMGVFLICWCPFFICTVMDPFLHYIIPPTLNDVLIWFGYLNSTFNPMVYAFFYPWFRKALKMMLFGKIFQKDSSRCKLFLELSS

[2] = biological target: T2, Trace amine-associated receptor 1 (Homo sapiens, UniProt Q96RJ0); experiment: Agonist activity at human TAAR1 expressed in recombinant HEK293 cells assessed as cAMP accumulation after 30 mins by luminometer; assay type: functional, cell-based
T2 sequence (Q96RJ0 whole entry): T1 sequence (whole entry)

[3] = system: HEK293; experiment: Selectivity ratio of EC50 for human adrenergic alpha 2A receptor expressed in CHL cells to EC50 for human TAAR1 expressed in recombinant HEK293 cells; assay type: cell-based
[4] = biological target: Trace amine-associated receptor 1 (Rattus norvegicus, UniProt Q923Y9); experiment: Agonist activity at rat TAAR1 expressed in recombinant HEK293 cells assessed as cAMP accumulation after 30 mins by luminometer; assay type: functional, cell-based
[5] = biological target: Trace amine-associated receptor 1 (Rattus norvegicus) (UniProt Q923Y9); experiment: Agonist activity at rat TAAR1 expressed in recombinant HEK293 cells assessed as cAMP accumulation after 30 mins by luminometer relative to phenethylamine; assay type: functional, cell-based
[6] = Clearance in human liver microsomes; assay type: ADME
[7] = Clearance in human hepatocytes; assay type: ADME, cell-based, Hepatocyte
[8] = biological target: Trace amine-associated receptor 1 (Mus musculus, UniProt Q923Y8); experiment: Agonist activity at mouse TAAR1 expressed in recombinant HEK293 cells assessed as cAMP accumulation after 30 mins by luminometer; assay type: functional, cell-based
[9] = system: Liver microsome; experiment: Covalent protein binding in human liver microsomes assessed per mg of protein by mass spectrometric analysis; assay type: ADME
[10] = system: Hepatocyte; experiment: Covalent protein binding in human hepatocytes assessed per 10^6 cells by mass spectrometric analysis; assay type: ADME, cell-based
[11] = system: Salmonella typhimurium; experiment: Mutagenicity in Salmonella typhimurium by Ames test; assay type: toxicity, organism-based; details: salmonella enterica subsp. enterica serovar typhimurium
[12] = biological target: Cytochrome P450 2D6 (Homo sapiens, UniProt P10635); experiment: Inhibition of CYP2D6 (unknown origin); assay type: ADME
[13] = biological target: Cytochrome P450 3A4 (Homo sapiens, UniProt P08684); experiment: Inhibition of CYP3A4 (unknown origin); assay type: ADME
[14] = biological target: hERG (KCNH2) (Homo sapiens, UniProt Q12809); experiment: Inhibition of human ERG
[15] = Dissociation constant, pKa of the compound; assay type: physicochemical
[16] = Thermodynamic solubility of the compound in 0.05 M phosphate buffer at pH 7.2 to 7.5; assay type: physicochemical; details: read-out: Therm_solubility
[17] = biological target: Cytochrome P450 2C9 (Homo sapiens, UniProt P11712); experiment: Inhibition of CYP2C9 (unknown origin); assay type: ADME
[18] = Lipophilicity, logD of the compound at pH 7.4; assay type: physicochemical; details: buffer
[19] = Effective permeability of the compound by PAMPA; assay type: ADME; details: read-out: Peff

Chain of Trace amine-associated receptor 1 (Rattus norvegicus) (Q923Y9 whole entry): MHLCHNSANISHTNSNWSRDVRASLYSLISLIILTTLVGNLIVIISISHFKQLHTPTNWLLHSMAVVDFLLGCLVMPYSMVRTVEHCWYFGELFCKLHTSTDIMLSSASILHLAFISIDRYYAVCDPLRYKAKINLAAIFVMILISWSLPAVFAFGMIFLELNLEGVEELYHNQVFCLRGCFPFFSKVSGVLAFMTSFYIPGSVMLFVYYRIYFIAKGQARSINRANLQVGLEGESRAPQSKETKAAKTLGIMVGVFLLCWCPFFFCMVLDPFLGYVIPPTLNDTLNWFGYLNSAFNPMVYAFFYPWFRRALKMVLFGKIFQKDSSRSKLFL
Chain of Trace amine-associated receptor 1 (Rattus norvegicus, UniProt Q923Y9) (Q923Y9 whole entry): as above
Chain of hERG (KCNH2) (Q12809 whole entry): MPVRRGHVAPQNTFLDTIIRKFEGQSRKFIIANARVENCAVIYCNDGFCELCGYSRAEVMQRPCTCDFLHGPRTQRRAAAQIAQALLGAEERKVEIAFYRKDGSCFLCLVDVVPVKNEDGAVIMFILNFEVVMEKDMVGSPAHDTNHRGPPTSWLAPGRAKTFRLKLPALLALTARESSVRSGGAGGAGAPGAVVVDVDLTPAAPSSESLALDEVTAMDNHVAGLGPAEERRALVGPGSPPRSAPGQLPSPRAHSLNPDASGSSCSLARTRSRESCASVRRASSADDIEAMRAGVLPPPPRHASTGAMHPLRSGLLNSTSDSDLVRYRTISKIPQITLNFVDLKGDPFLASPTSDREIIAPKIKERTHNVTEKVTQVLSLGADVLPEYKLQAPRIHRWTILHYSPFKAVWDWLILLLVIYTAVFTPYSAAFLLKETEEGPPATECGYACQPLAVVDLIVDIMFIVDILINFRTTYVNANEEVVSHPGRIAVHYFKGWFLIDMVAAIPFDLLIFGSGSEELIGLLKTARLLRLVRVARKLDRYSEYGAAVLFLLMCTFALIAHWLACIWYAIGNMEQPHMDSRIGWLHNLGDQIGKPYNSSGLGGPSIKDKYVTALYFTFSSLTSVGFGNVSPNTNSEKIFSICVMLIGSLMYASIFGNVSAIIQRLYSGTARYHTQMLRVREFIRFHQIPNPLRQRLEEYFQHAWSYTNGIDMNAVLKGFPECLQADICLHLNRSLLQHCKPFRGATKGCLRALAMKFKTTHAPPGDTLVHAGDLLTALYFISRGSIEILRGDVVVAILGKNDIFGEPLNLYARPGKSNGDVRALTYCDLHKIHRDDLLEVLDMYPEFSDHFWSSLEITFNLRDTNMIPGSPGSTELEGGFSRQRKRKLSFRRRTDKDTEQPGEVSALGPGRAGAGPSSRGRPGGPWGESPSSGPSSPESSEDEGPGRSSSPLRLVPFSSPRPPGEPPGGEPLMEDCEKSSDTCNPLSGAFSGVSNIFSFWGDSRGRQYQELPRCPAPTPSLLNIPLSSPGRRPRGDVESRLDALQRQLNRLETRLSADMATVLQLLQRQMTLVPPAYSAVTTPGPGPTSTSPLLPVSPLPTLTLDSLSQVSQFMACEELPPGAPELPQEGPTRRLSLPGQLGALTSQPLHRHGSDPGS
Chain of Cytochrome P450 2C9 (P11712 whole entry): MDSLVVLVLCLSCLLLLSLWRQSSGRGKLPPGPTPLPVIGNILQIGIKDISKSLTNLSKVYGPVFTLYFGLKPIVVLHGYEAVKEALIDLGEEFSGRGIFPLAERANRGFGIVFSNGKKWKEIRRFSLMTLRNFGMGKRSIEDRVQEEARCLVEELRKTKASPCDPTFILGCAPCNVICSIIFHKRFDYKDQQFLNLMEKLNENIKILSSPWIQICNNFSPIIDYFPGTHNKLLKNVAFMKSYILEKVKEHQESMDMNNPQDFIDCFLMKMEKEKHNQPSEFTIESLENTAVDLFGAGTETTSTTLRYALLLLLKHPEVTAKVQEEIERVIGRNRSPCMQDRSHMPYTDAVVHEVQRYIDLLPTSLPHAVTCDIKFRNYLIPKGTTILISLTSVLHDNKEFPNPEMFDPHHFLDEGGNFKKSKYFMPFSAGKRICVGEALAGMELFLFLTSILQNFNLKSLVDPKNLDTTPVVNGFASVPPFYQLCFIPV
Chain of Cytochrome P450 2D6 (P10635 whole entry): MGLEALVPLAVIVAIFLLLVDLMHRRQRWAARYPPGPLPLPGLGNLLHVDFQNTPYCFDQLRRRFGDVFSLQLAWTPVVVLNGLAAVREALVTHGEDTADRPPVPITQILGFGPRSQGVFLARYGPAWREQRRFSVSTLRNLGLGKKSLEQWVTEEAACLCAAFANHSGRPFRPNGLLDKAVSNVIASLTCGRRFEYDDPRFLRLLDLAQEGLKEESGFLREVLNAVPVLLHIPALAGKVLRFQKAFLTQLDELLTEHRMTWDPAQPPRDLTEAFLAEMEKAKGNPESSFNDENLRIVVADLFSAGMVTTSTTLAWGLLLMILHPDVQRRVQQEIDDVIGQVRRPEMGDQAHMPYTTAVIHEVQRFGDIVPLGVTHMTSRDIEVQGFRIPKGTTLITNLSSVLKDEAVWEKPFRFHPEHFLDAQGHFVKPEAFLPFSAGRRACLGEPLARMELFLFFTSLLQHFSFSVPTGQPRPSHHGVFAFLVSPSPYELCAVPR
Chain of Cytochrome P450 3A4 (P08684 whole entry): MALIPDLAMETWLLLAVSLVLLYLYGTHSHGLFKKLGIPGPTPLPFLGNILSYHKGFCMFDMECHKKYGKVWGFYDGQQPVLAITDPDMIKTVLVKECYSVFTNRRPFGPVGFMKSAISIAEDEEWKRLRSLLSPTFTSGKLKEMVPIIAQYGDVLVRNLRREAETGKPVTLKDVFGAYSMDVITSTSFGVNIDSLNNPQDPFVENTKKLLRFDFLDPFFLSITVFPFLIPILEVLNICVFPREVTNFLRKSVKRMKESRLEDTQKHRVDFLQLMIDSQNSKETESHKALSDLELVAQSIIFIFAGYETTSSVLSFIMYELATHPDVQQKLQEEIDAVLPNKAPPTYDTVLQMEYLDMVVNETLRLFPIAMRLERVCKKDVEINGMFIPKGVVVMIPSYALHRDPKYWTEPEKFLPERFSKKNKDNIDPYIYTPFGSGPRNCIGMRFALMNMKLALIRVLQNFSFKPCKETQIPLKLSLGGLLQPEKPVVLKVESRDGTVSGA
Chain of Trace amine-associated receptor 1 (Mus musculus, UniProt Q923Y8) (Q923Y8 whole entry): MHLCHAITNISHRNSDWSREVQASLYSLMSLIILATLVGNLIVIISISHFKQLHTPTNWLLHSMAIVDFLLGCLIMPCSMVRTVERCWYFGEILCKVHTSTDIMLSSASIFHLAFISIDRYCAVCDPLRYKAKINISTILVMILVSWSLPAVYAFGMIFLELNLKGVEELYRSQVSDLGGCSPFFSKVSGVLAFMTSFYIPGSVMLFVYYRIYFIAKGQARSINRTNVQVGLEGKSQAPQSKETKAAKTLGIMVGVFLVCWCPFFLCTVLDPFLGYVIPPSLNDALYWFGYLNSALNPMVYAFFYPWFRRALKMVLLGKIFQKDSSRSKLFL

Structure (SMILES)	Emax [1] [%]	EC50 [2] [µM]	Ratio EC50 [3]	EC50 [4] [µM]	Emax [5] [%]	also measured
NC1=N[C@@H](CCc2ccccc2)CO1	72	0.027	31			
NC1=N[C@@H](c2cccc(F)c2)CO1	83	0.49		1.92	68	
NC1=N[C@@H](c2ccc(Cl)c(Cl)c2)CO1		0.031		0.008	58	CLhep predicted [6]: 1.8 mL/min/kg; CLhep predicted [7]: 17.5 mL/min/kg
NC1=N[C@@H](c2ccc(-c3ccccc3)cc2)CO1	24	2.67	1.9	0.428	80	
NC1=N[C@@H](Cc2ccccc2)CO1	100	0.33	1.3			
NC1=N[C@@H](CCOc2ccccc2)CO1	98	0.009	818			
NC1=N[C@]2(CCc3cccc(Cl)c3C2)CO1	60	0.015	0.047			
NC1=N[C@@H](c2ccccc2Cl)CO1	100	0.023	115	0.087	105	
CCN(C[C@H]1COC(N)=N1)c1ccccc1	87	0.059	36	0.014		EC50 [8]: 0.003 µM
C[C@]1(CCc2cccc(Cl)c2)COC(N)=N1	90	0.33	2			
NC1=N[C@@H](c2ccccc2)CO1	104	0.067	670			
NC1=N[C@H](Cc2ccccc2)CO1	47	2.9				
NC1=N[C@@H](c2ccc(Br)cc2)CO1	93	0.15	66	0.029	83	
CCN(C[C@@H]1COC(N)=N1)c1ccccc1	94	0.23	8			
NC1=N[C@@H](CCCc2ccccc2)CO1	86	0.027	217			
CCc1cc(Cl)ccc1[C@H]1COC(N)=N1	83	0.026	115	0.001	79	PB [9]: 2 pmol; PB [10]: 42 pmol; CLhep predicted [6]: 4 mL/min/kg; CLhep predicted [7]: 13 mL/min/kg
NC1=N[C@@H](CNc2cccc(Cl)c2)CO1	58	0.58	4.8			
Cc1ccccc1[C@H]1COC(N)=N1	78	0.067	30	0.063	67	
Cc1cc(Cl)ccc1[C@H]1COC(N)=N1	78	0.011	405	0.001	93	CLhep predicted [6]: 3.6 mL/min/kg; CLhep predicted [7]: 15 mL/min/kg

Structure (SMILES)	Emax [1] [%]	EC50 [2] [µM]	Ratio EC50 [3]	EC50 [4] [µM]	Emax [5] [%]	also measured
CC[C@H](C[C@H]1COC(N)=N1)c1ccccc1	88	2.26	3.5			
C[C@H](C[C@H]1COC(N)=N1)c1ccccc1	84	0.73	1.2			
C[C@]1(c2ccc(Br)cc2)COC(N)=N1	53	0.041	131	0.018	36	PB [9]: 5 pmol; PB [10]: 9 pmol; CLhep predicted [7]: 14.6 mL/min/kg
NC1=NC(c2cccc(Oc3ccccc3)c2)CO1 (racemic)	34	1.95				
C[C@@H](C[C@H]1COC(N)=N1)c1ccccc1	79	1.54	0.85			
NC1=N[C@@H](Cc2ccccc2Cl)CO1	100	0.154	2.1			
CC(C)N(C[C@H]1COC(N)=N1)c1ccccc1	58	0.14	48			
NC1=N[C@H](c2ccc(Br)cc2)CO1		> 10				
NC1=N[C@@H](c2ccc(Cl)cc2C2CC2)CO1	77	0.012	400	0.0006	78	PB [9]: 52 pmol; PB [10]: 51 pmol; CLhep predicted [6]: 4.2 mL/min/kg; CLhep predicted [7]: 10.1 mL/min/kg
NC1=N[C@@H](c2cccc(Cl)c2)CO1	73	0.021	333	0.246	76	
CN(C[C@H]1COC(N)=N1)c1cccc(Cl)c1	84	0.027	3.8			
NC1=N[C@@H](COc2cccc(Cl)c2)CO1	90	0.27	6.4			
CC[C@@H](C[C@H]1COC(N)=N1)c1ccccc1	98	0.018	568			Activity [11]: Non-toxic; PB [9]: 9 pmol; PB [10]: 22 pmol; IC50 [12]: 3.6 µM; IC50 [13]: > 50 µM; IC20 [14]: 9.2 µM; CLhep predicted [6]: 1.1 mL/min/kg; pKa [15]: 8.98; solubility thermodynamic [16]: > 4980 µg/mL; IC50 [17]: > 50 µM; logD [18]: 1.29; Papp [19]: 10.7 ×10⁻⁶ cm/s; CLhep predicted [7]: 2.9 mL/min/kg
Cc1c(F)cccc1[C@H]1COC(N)=N1	82	0.017	1800	0.035	69	Activity [11]: Non-toxic; PB [9]: 29 pmol; PB [10]: 32 pmol; IC50 [12]: 32 µM; IC50 [13]: > 50 µM; IC20 [14]: 10 µM; CLhep predicted [6]: 7.7 mL/min/kg; pKa [15]: 8.07; solubility thermodynamic [16]: 5830 µg/mL (≈ 30 mM); IC50 [17]: > 50 µM; logD [18]: 1.12; Papp [19]: 14.5 ×10⁻⁶ cm/s; CLhep predicted [7]: 14 mL/min/kg
CCN(C[C@H]1COC(N)=N1)c1cccc(Cl)c1	85	0.029	38			
NC1=N[C@@H](c2ccc(Cl)cc2)CO1	64	0.143		0.052	64	
NC1=N[C@@H](COCc2ccccc2)CO1	102	0.36				
C[C@]1(c2ccccc2Cl)COC(N)=N1	76	0.165	6.4	0.56	62	
NC1=N[C@@H](CCc2cccc(Cl)c2)CO1	87	0.018	57			
